From paper PMC5461640 (Pharmacology Research & Perspectives, 2017)
Read-outs that look alike come from different tables or passages of the source. Marks after values point to notes of the source that are not given here.

Experiments:
human OT receptors = biological target: T1, human OT receptors (Homo sapiens, UniProt P30559); format: cell-based
T1 construct: expressed in transfected cells; host or cells: HEK-293 cells (stably transformed, G418 selection)
T1 sequence (P30559 1-389): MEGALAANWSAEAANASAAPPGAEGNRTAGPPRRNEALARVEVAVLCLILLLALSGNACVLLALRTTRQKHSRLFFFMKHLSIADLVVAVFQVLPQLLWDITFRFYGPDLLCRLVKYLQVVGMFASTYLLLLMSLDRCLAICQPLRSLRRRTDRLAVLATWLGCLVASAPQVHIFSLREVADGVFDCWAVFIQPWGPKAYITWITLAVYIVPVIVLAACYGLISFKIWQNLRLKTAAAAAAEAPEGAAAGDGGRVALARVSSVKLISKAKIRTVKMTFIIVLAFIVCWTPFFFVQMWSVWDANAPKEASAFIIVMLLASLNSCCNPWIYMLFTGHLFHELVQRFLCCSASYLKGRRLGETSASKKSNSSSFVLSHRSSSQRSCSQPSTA
Procedure: Plasmid constructs were described previously (Amina et al. 2010). Human embryonic kidney HEK‐293 cells were maintained in Dulbecco's Modified Eagle's Medium (DMEM) supplemented with 10% fetal bovine serum (FBS) and Geneticin G418 100 μg/mL at 37°C in a humidified atmosphere of 95% air and 5% CO2. Cells were grown in culture dishes to 80–90% confluence and transfected with the expression plasmid pcDNAHOXTR‐376R or pcDNA3(+) (Invitrogen, Carlsbad, CA) (MOCK‐transfected cells), using FuGENE HD Transfection Reagent (Roche, Basel, Switzerland) in accordance with the manufacturer's instructions.
We measured [Ca^2+]i using the fluorescent Ca^2+ indicator fura‐2‐acetoxymethyl ester (fura‐2/AM). Transfected HEK‐293 cells were loaded with fura‐2/AM to a final concentration of 1 μmol/L in complete medium and incubated at 37°C as reported previously (Ma et al. 2013). After 30‐min loading, the cells were washed three times with HEPES‐buffered saline (HBS) solution (145 mmol/L NaCl, 5 mmol/L KCl, 1 mmol/L MgCl2, 20 mmol/L HEPES‐NaOH, 2 mmol/L CaCl2, 20 mmol/L glucose, pH 7.4). The fluorescence of the cells loaded with fura‐2/AM was then measured at 37°C, at the determined sites, through a pinhole (10–20 μm in diameter). We used alternating excitation wavelengths of 340 and 380 nm in a Ca^2+ microspectrofluorometric system (IX‐73 Model; Olympus, Tokyo, Japan) and Metafluor software (Molecular Devices, Sunnyvale, CA), as described previously (Hashii et al. 2000). […] The ratio of fluorescence at 340 nm and 380 nm (F340/F380) was used to determine [Ca^2+]i. All data were normalized to the baseline fluorescence (F0) recorded 10 s before addition, and given as F/F0 where F – maximal ratio of fluorescence after drug's application.

[1] = male, ICR, mouse, in vivo, ip, 100 ng/kg
Procedure: Thirty minutes or 24 h later, mice were anesthetized by an intraperitoneal injection of pentobarbital. Blood samples of 0.1 mL were collected by cardiac puncture in EDTA and aprotinin‐coated capillaries and centrifuged at 1600g for 15 min at 4°C. Plasma samples were collected and stored at –80°C until use.
(§1) Protein content was determined using a Bio‐Rad protein assay kit and bovine serum albumin assay standard (Bio‐Rad, Hercules, CA).

[2] = male, ICR, mouse, in vivo, ip, 100 ng/kg, 0.5 h
Procedure: Mouse CSF was obtained according the techniques described by Jin et al. (2007). […] Thirty minutes or 24 h later, the mice were anaesthetized with intraperitoneal injection of pentobarbital. The skin over the posterior neck was removed by two incisions, the first in the midline from the low cervical area to the anterior cranium and the second across the craniocervical junction. Subcutaneous tissue and nuchal muscles were exposed, sectioned along the rim of the occipital bone and then removed laterally unveiling the glistening clear arachnoid membrane overlying the cisterna magna. A micropipette was guided into the cisterna magna.
The micropipette was constructed by cutting a 30‐gauge needle with scissors to approximately 6–7 mm. The needle was then inserted 4–5 mm into the lumen of a 10 μL micropipette. CSF samples were obtained between 8.00 and 11.00 AM, and usually 5 μL of clear CSF was obtained.
as §1

[3] = drug responses at 10^−8 mol/L relative to OT as 100%, HEK‐293 cells expressing pcDNAHOXTR‐376R, mean ± SEM, n = 25

Compound | Percentage of maximum Ca^2+ mobilization (human OT receptors; [3]) | plasma level of OT ([1]; 0.5 h) [ng/mL] | plasma level of OT ([1]; 24 h) [ng/mL] | level of OT in the CSF [2] [ng/mL] | Percentage of maximum Ca^2+ mobilization (human OT receptors; 10.0)
CCCCCCCCCCCCCCCC(=O)N[C@H]1CSSC[C@@H](C(=O)N2CCC[C@H]2C(=O)N[C@@H](CC(C)C)C(=O)NCC(N)=O)NC(=O)[C@H](CC(N)=O)NC(=O)[C@H](CCC(N)=O)NC(=O)[C@H]([C@@H](C)CC)NC(=O)[C@H](Cc2ccc(OC(=O)CCCCCCCCCCCCCCC)cc2)NC1=O [LOT‐1, lipo‐oxytocin‐1] | 12.6 ± 1.8 ^a ^, ^c % |  |  |  | 
CC[C@H](C)[C@@H]1NC(=O)[C@H](Cc2ccc(O)cc2)NC(=O)[C@@H](N)CSSC[C@@H](C(=O)N2CCC[C@H]2C(=O)N[C@@H](CC(C)C)C(=O)NCC(N)=O)NC(=O)[C@H](CC(N)=O)NC(=O)[C@H](CCC(N)=O)NC1=O [OT, Oxytocin] | 100% | 0.695 ± 0.052 | 0.547 ± 0.039 | 0.347 ± 0.038 | 
CCCCCCCCCCCCCCCC(=O)Oc1ccc(C[C@@H]2NC(=O)[C@@H](N)CSSC[C@@H](C(=O)N3CCC[C@H]3C(=O)N[C@@H](CC(C)C)C(=O)NCC(N)=O)NC(=O)[C@H](CC(N)=O)NC(=O)[C@H](CCC(N)=O)NC(=O)[C@H]([C@@H](C)CC)NC2=O)cc1 [LOT‐3, lipo‐oxytocin‐3] |  |  |  |  | 13.1 ± 1.8 ^a ^, ^c %
CCCCCCCCCCCCCCCC(=O)N[C@H]1CSSC[C@@H](C(=O)N2CCC[C@H]2C(=O)N[C@@H](CC(C)C)C(=O)NCC(N)=O)NC(=O)[C@H](CC(N)=O)NC(=O)[C@H](CCC(N)=O)NC(=O)[C@H]([C@@H](C)CC)NC(=O)[C@H](Cc2ccc(O)cc2)NC1=O [LOT‐2, lipo‐oxytocin‐2] |  |  |  |  | 45.5 ± 0.83 ^a ^, ^b %
